Consider 49 compounds from BindingDB's records for doi:10.7270/Q2N58JS6 (University of Pittsburgh, 2007).

Structures are written as SMILES.

Chain of Serine/threonine-protein kinase PLK1 (P53350 whole entry): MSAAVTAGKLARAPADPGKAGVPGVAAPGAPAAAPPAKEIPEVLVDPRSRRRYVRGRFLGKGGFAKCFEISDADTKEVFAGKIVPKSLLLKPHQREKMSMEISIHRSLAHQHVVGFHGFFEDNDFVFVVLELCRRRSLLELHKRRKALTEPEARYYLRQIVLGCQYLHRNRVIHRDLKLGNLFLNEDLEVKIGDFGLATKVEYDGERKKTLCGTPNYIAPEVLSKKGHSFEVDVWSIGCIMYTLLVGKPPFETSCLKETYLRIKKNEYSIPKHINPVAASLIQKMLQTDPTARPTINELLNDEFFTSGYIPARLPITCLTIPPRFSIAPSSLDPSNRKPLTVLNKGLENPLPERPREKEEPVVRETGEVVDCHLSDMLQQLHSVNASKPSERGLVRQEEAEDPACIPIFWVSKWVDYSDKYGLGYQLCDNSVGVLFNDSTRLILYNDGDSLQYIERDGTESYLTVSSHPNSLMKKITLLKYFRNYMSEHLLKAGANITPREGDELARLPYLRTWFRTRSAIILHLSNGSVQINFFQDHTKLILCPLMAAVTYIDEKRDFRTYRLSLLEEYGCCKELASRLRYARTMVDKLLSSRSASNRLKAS

The experiment has as its target Serine/threonine-protein kinase PLK1 (Homo sapiens, UniProt P53350). Put plainly: redox cycling hydrogen peroxide generation, dose response, artefact control for Plk1 PBD inhibitor project, biochemical, 1 mM DTT (AID 936).
In the case of `Cn1c(-c2cc3ccc(OC(=O)C(C)(C)C)cc3oc2=O)nc2ccccc21` [2,2-Dimethyl-propionic acid 3-(1-methyl-1H-benzoimidazol-2-yl)-2-oxo-2H-chromen-7-yl ester], the EC50 (commonly the concentration giving half of the maximal effect) is more than 50 µM.

`O=C(Nc1cccn(Cc2c(Cl)cccc2Cl)c1=O)c1c(Cl)cccc1Cl` [2,6-dichloro-N-[1-(2,6-dichlorobenzyl)-2-keto-3-pyridyl]benzamide]: the concentration giving a half-maximal response (EC50) is more than 50 µM.

`Nc1cc(-c2ccc(Br)cc2)nn1S(=O)(=O)c1cccc2nsnc12` [2-(2,1,3-benzothiadiazol-4-ylsulfonyl)-5-(4-bromophenyl)-3-pyrazolamine] registered an EC50 of more than 50 µM.

Compound `O=C(O)C1CCCCC1C(=O)Nc1ccc2c(c1)OCCO2` (centres undefined) [2-(2,3-dihydro-1,4-benzodioxin-6-ylcarbamoyl)cyclohexane-1-carboxylic acid] yielded an EC50 of more than 50 µM.

As for `COc1ccccc1C1SCCN1S(=O)(=O)c1cccc(C(F)(F)F)c1` (centres undefined) [2-(2-Methoxy-phenyl)-3-(3-trifluoromethyl-benzenesulfonyl)-thiazolidine], the EC50 was more than 50 µM.

Compound `NC(=O)Cn1c(S(=O)(=O)Cc2ccccc2)nc2ccccc21` [2-(2-benzylsulfonylbenzimidazol-1-yl)acetamide] registered a concentration giving a half-maximal response (EC50) of more than 50 µM.

On to `COc1ccc(Nc2oc(-c3ccccc3Cl)nc2C#N)cc1` [2-(2-chlorophenyl)-5-(4-methoxyanilino)-1,3-oxazole-4-carbonitrile], for which the half-maximal effective concentration (EC50) is more than 50 µM.

Take `Cc1nn(C(C)C(=O)N2CCCCC2)c(=O)c2c1sc1ccccc12` (centres undefined) [2-(2-keto-1-methyl-2-piperidino-ethyl)-4-methyl-benzothiopheno[2,3-d]pyridazin-1-one]: the EC50 is more than 50 µM.

`O=C(Cc1ccc(Cl)cc1)NCCN1CCCC1` [2-(4-Chloro-phenyl)-N-(2-pyrrolidin-1-yl-ethyl)-acetamide]: the EC50 is more than 50 µM.

Compound `CNC(=O)CC(C(=O)O)c1ccc(OCC(C)C)cc1` (centres undefined) [2-(4-Isobutoxy-phenyl)-N-methyl-succinamic acid] yielded an EC50 of more than 50 µM.

`Cc1ccc(OCC(=O)Nc2ccc(N3CCOCC3)cc2)cc1` [2-(4-methylphenoxy)-N-(4-morpholin-4-ylphenyl)acetamide] registered an EC50 of more than 50 µM.

`C=CCSc1nccc(-c2cc(Cl)sc2Cl)n1` [2-(allylsulfanyl)-4-(2,5-dichloro-3-thienyl)pyrimidine] came in with an EC50 of more than 50 µM.

On to `CCNC(=O)NC(=O)C(C)OC(=O)c1cccnc1SC` (centres undefined) [2-(methylthio)-3-pyridinecarboxylic acid [1-(ethylcarbamoylamino)-1-oxopropan-2-yl] ester], for which the EC50 was more than 50 µM.

Compound `Nc1ccc2c(c1)C(=O)C(=O)c1ccccc1-2` [2-Amino-phenanthrene-9,10-dione] displayed an EC50 of more than 50 µM.

For the compound `O=C(CC1C(=O)NCCN1C(=S)Nc1ccccc1)Nc1ccc2c(c1)OCCO2` (centres undefined) [2-[1-(anilinocarbonothioyl)-3-oxo-2-piperazinyl]-N-(2,3-dihydro-1,4-benzodioxin-6-yl)acetamide], the concentration giving a half-maximal response (EC50) is more than 50 µM.

Compound `O=C(CN1C(=O)c2ccccc2C1=O)N1CCN(c2nnc(-c3ccccc3)c3ccccc23)CC1` [2-[2-keto-2-[4-(4-phenylphthalazin-1-yl)piperazino]ethyl]isoindoline-1,3-quinone] returned an EC50 of more than 50 µM.

In the case of `CCC(Sc1nc2nnc(C)c-2c(N)n1-c1cccc(Cl)c1)C(=O)NCCOC` (centres undefined) [2-[4-amino-5-(3-chlorophenyl)-3-methylpyrazolo[3,4-d]pyrimidin-6-yl]sulfanyl-N-(2-methoxyethyl)butanamide], the EC50 was more than 50 µM.

For the compound `O=NCc1cc(Br)ccc1OCC(=O)O` [2-[4-bromanyl-2-(hydroxyiminomethyl)phenoxy]ethanoic acid], the EC50 is more than 50 µM.

The compound `CCN1C(=O)/C(=C/c2nc3ccccc3c(=O)n2-c2ccccc2)c2ccccc21` [2-[(1-ethyl-2-oxo-1,2-dihydro-3H-indol-3-ylidene)methyl]-3-phenyl-4(3H)-quinazolinone] had an EC50 of more than 50 µM.

As for `COc1ccc(S(=O)(=O)N(C)CC(=O)Nc2ccccc2C(F)(F)F)cc1` [2-[(4-methoxyphenyl)sulfonyl-methyl-amino]-N-[2-(trifluoromethyl)phenyl]acetamide], the EC50 is more than 50 µM.

Take `CCn1ncc(CN2CCN(C(=O)Nc3ccccc3C(=O)OC)CC2)c1C` [2-[[4-[(1-ethyl-5-methyl-pyrazol-4-yl)methyl]piperazine-1-carbonyl]amino]benzoic acid methyl ester]: the EC50 is more than 50 µM.

The compound `CCn1c(SCC(N)=O)nnc1-c1ccc(S(=O)(=O)N2CCN(C)CC2)cc1` [2-[[4-ethyl-5-[4-(4-methylpiperazin-1-yl)sulfonylphenyl]-1,2,4-triazol-3-yl]sulfanyl]acetamide] gave an EC50 of more than 50 µM.

Compound `COC(=O)CNC(=O)C12CC3(C)CC(C)(CC(C)(C3)C1)C2` [2-[[oxo-(3,5,7-trimethyl-1-adamantyl)methyl]amino]acetic acid methyl ester] came in with an EC50 of more than 50 µM.

With `Cc1oc2c(c1C(=O)c1ccccc1)C(=O)C(=O)c1ccccc1-2` [2-methyl-3-(phenylcarbonyl)benzo[g][1]benzofuran-4,5-dione], the EC50 was more than 50 µM.

`COc1cc(OC)cc(C(=O)NCCCN2CCOCC2)c1` [3,5-Dimethoxy-N-(3-morpholin-4-yl-propyl)-benzamide] displayed an EC50 of more than 50 µM.

`Cc1cccc(-n2c(CCn3nc(C)c([N+](=O)[O-])c3C)n[nH]c2=S)c1` [3-(2-{4-nitro-3,5-dimethyl-1H-pyrazol-1-yl}ethyl)-4-(3-methylphenyl)-5-sulfanyl-4H-1,2,4-triazole] showed an EC50 of more than 50 µM.

Compound `Cc1cc(C)n(-c2nnc3n2N=C(c2ccccc2)CS3)n1` [3-(3,5-dimethyl-1-pyrazolyl)-6-phenyl-7H-[1,2,4]triazolo[3,4-b][1,3,4]thiadiazine] displayed an EC50 of more than 50 µM.

Turning to `Cn1nc(-c2ccc(Cl)cc2)nc2c(=O)n(C)c(=O)nc1-2` [3-(4-Chloro-phenyl)-1,6-dimethyl-1H-pyrimido[5,4-e][1,2,4]triazine-5,7-dione], the EC50 was more than 50 µM.

`COc1ccc(Cn2c(=O)sc3ccccc32)cc1` [3-(4-Methoxy-benzyl)-3H-benzothiazol-2-one] had an EC50 of more than 50 µM.

The compound `COC(=O)CCc1c(C)[nH]c(=S)[nH]c1=O` [3-(6-methyl-4-oxo-2-sulfanylidene-1H-pyrimidin-5-yl)propanoic acid methyl ester] showed an EC50 of more than 50 µM.

As to `CC(C)Sc1nc(N2CCOCC2)c2c(c1C#N)CC(C)(C)N(C)C2` [3-(isopropylthio)-6,6,7-trimethyl-1-morpholino-5,8-dihydro-2,7-naphthyridine-4-carbonitrile], the EC50 is more than 50 µM.

`O=C1CCC(C(=O)O)(c2ccccc2)C1` (centres undefined) [3-Oxo-1-phenyl-cyclopentanecarboxylic acid] gave a concentration for a half-maximal effect (EC50) of more than 50 µM.

For `Cc1ccc2cc(C(c3nnnn3C3CCCC3)N3CCN(c4ccccc4)CC3)c(=O)[nH]c2c1` (centres undefined) [3-[(1-cyclopentyltetrazol-5-yl)-(4-phenylpiperazin-1-yl)methyl]-7-methyl-1H-quinolin-2-one], the 50% effective concentration (EC50) is more than 50 µM.

Compound `CC1CCCC(NC2CCCCNC2=O)C1` (centres undefined) [3-[(3-methylcyclohexyl)amino]-2-azepanone] returned an EC50 of more than 50 µM.

As for `Cc1nc2cccc(C)n2c(=O)c1Cl` [3-chloranyl-2,6-dimethyl-pyrido[1,2-a]pyrimidin-4-one], the EC50 is more than 50 µM.

On to `CCn1cnc2sc(C(=O)N3CCN(c4ccc(OC)cc4)CC3)c(C)c2c1=O` [3-ethyl-6-[4-(4-methoxyphenyl)piperazin-1-yl]carbonyl-5-methyl-thieno[2,3-d]pyrimidin-4-one], for which the EC50 is more than 50 µM.

As to `O=C1Nc2ccc([N+](=O)[O-])cc2C1(O)N1CCCCC1` (centres undefined) [3-hydroxy-5-nitro-3-(1-piperidinyl)-1,3-dihydro-2H-indol-2-one], the EC50 was more than 50 µM.

Turning to `CC1CN(C2CC(C)(C)NC(C)(C)C2)CCC1=O` (centres undefined) [3-methyl-1-(2,2,6,6-tetramethyl-4-piperidinyl)-4-piperidinone], the EC50 is more than 50 µM.

In turn, `O=C(NC(NC(=S)Nc1ccc(Cl)cc1Cl)C(Cl)(Cl)Cl)c1cccc([N+](=O)[O-])c1` (centres undefined) [3-nitro-N-[2,2,2-trichloro-1-({[(2,4-dichlorophenyl)amino]carbonothioyl}amino)ethyl]benzamide] had a half-maximal effective concentration (EC50) of 28.2 µM.

`Cc1cccc(C)c1NC1=NC(=S)N(c2ccccc2)C12CCOC(C)(C)C2` (centres undefined) [4-(2,6-dimethylanilino)-7,7-dimethyl-1-phenyl-8-oxa-1,3-diazaspiro[4.5]dec-3-ene-2-thione] had an EC50 of more than 50 µM.

The compound `Cc1ccccc1Oc1ncnc2oc(-c3ccccc3)cc12` [4-(2-methylphenoxy)-6-phenyl-furo[2,3-d]pyrimidine] returned a concentration giving a half-maximal response (EC50) of more than 50 µM.

Take `Cc1ccc(C(=O)c2c[nH]c(C(=O)NCCCN3CCOCC3)c2)cc1` [4-(4-methylbenzoyl)-N-(3-morpholin-4-ylpropyl)-1H-pyrrole-2-carboxamide]: the EC50 is more than 50 µM.

As to `CN(C)c1ccc(C(=O)Nc2nc3c(s2)CCCC3)cc1` [4-(dimethylamino)-N-(4,5,6,7-tetrahydro-1,3-benzothiazol-2-yl)benzamide], the EC50 was more than 50 µM.

Compound `O=C(CN1C(=O)COc2ccccc21)NCc1ccc(C(=O)O)cc1` [4-[[2-(3-oxidanylidene-1,4-benzoxazin-4-yl)ethanoylamino]methyl]benzoic acid] returned an EC50 of more than 50 µM.

As to `CCCc1nc2sc3c(c2c(=O)n1NC(=O)CCC(=O)O)CCCC3` [4-keto-4-[(4-keto-2-propyl-5,6,7,8-tetrahydrobenzothiopheno[2,3-d]pyrimidin-3-yl)amino]butyric acid], the EC50 is more than 50 µM.

The compound `Cc1ccc(C(=O)Nc2cnc3sc(C)nn3c2=O)cc1` [4-methyl-N-(2-methyl-5-oxidanylidene-[1,3,4]thiadiazolo[3,2-a]pyrimidin-6-yl)benzamide] returned an EC50 of more than 50 µM.

`CC1(C)CC(=O)C=C(NCc2ccncc2)C1` [5,5-dimethyl-3-(4-pyridylmethylamino)cyclohex-2-en-1-one]: the EC50 is more than 50 µM.

Turning to `CC(C)(C)NC(=O)CC(CC(=O)O)c1ccccc1` (centres undefined) [5-(tert-butylamino)-5-keto-3-phenyl-valeric acid], the 50% effective concentration (EC50) was more than 50 µM.

For `C=CCn1c2ccccc2c2nnc(SCc3ccc4nonc4c3)nc21` [5-[(5-prop-2-enyl-[1,2,4]triazino[5,6-b]indol-3-yl)sulfanylmethyl]-2,1,3-benzoxadiazole], the EC50 was more than 50 µM.
